Reference: patent publication USRE46942E1, “4-piperidinyl compounds for use as tankyrase inhibitors” (NOVARTIS AG, priority 2011, dated 2018)

Legend:
[1] = tested on: Herpes Simplex Virus (HSV); conditions: cited from earlier work
[2] = tested on: Axin2 protein in colorectal cell line SW480; experiment: Cellular ELISA assay for stabilizing the Axin2 protein; format: cell-based; conditions: Homo sapiens; SW480 cells, 24 hrs; read-out: Axin AC50
Protocol: Compound activity in stabilizing the Axin2 protein was measured by Sandwich Enzyme-Linked Immuosorbent (ELISA) assay in the colorectal cell line SW480. 30,000 SW480 cells were seeded per well in 96-well plate and incubated overnight prior to compound treatment. […] Cells were then washed with 100 μL of cold Phosphate Buffer Saline (PBS), and lysed in 125 μl of cold 1× lysis buffer (Cell Signaling Technology, 9803) supplemented with Protease inhibitor (Roche, 11836170) and Phosphatase inhibitors (Sigma, P2850, P5726). […] After blocking, plates were then washed three times with 300 μl/well of wash solution. 100 μL of prepared SW480 cell lysate was then added to each well and incubated at room temperature for 2 hours while shaking gently. After washing, 100 μL of Biotinylated anti-Axin2 antibody (CST, 2151) was added to each well and incubated room temperature for 2 hours. 100 μL of Streptavidin-HRP (R&D systems, DY998) diluted 1:200 in 1% BSA/PBS was then added in each well and incubate for 30 mins at R/T in the dark. Signal was detected by Chemiluminescence (Pierce SuperSignal ELISA Femto #3704), and measured on PerkinElmer Wallac 1420 plate reader.

[3] = tested on: Wnt ligand-induced signaling in HEK293 cells; experiment: Wnt-responsive Super-TOp-Flash (STF) luciferase reporter gene assay; format: cell-based; conditions: Homo sapiens, Wnt3A condition medium
Protocol: Compound activity in inhibiting Wnt ligand-induced signaling was measured using a Wnt-responsive Super-TOp-Flash (STF) luciferase reporter gene assay in HEK293 cells. On day 1 of the assay, cells were plated at a density of 8000 cells per well of 384-well plate in 25 μl medium containing 5% fetal bovine serum (FBS). […] On the third day, the luciferase activity was measured by the Bright-Glo™ Luciferase Assay System following manufacture's protocol (Promega, E2620).

[4] = tested on: Non-small lung cancer ABC-1 cells; experiment: Cellular proliferation assay (CellTiter-Glo); format: cell-based; conditions: Homo sapiens, 72 h, 3 days of compound treatment
Protocol: Non-small lung cancer ABC-1 cells were plated at 5000 cells per well in 96-well plates and treated with 8 serial compound dilutions starting from 10 μM as the highest concentration. Viable cells were measured after 3 days of compound treatment using the CellTiter-Glo assay (Promega, G7570). Assay was performed following the manufacture protocol.

Row | Compound | viral growth [1] | AC50 [2] [nM] | IC50 [3] [nM] | IC50 [4] [nM]
1 | Oc1nc(-c2ccc(C(F)(F)F)cc2)nc2c1CSCC2 [XAV939] | decreased viral growth | – | – | –
2 | COc1ccc2c(c1)CC1(CCN([C@@H]3CCN(Cc4nc5c(c(=O)[nH]4)COCC5)C3=O)CC1)C2=O [Example 17, (R)-2-((3-(5-methoxy-1-oxo-1,3-dihydrospiro[indene-2,4′-piperidine]-1′-yl)-2-oxopyrrolidin-1-yl)methyl)-7,8-dihydro-3H-pyrano[4,3-d]pyrimidin-4(5H)-one] | – | 1790 ± 140 | 396 ± 10 | 2000 ± 900
3 | COc1ccc2c(c1)CC1(CCN([C@H]3CCN(Cc4nc5c(c(=O)[nH]4)COCC5)C3=O)CC1)C2=O [Example 16, (S)-2-((3-(5-methoxy-1-oxo-1,3-dihydrospiro[indene-2,4′-piperidine]-1′-yl)-2-oxopyrrolidin-1-yl)methyl)-7,8-dihydro-3H-pyrano[4,3-d]pyrimidin-4(5H)-one] | – | 7 ± 1 | 1.7 ± 0.2 | 82
4 | COc1ccc(C(=O)C2CCN([C@H]3CCN(CC(=O)Nc4nnc5n4CCS5)C3=O)CC2)cc1 [Example 33, N-(5,6-dihydrothiazolo[2,3-c][1,2,4]triazol-3-yl)-2-((S)-3-(4-(4-methoxybenzoyl)piperidin-1-yl)-2-oxopyrrolidin-1-yl)acetamide] | – | 1340 ± 110 | – | 1610
5 | COc1ccc(C(=O)C2CCN([C@@H]3CCN(CC(=O)Nc4nnc5n4CCS5)C3=O)CC2)cc1 (single isomer, unassigned) [Example 34] | – | 78 ± 6 | – | 49
